Results on 6 molecules are retold here after article PMC5963671, “Hes1 inhibitor isolated by target protein oriented natural products isolation (TPO-NAPI) of differentiation activators of neural stem cells† †Electronic supplementary information (ESI) available. See DOI: 10.1039/c5sc03540f” (Chemical Science, 2015).

Some results are limits rather than exact numbers.

Data set [1] deals with T1, Hes1 (Rattus norvegicus, UniProt Q04666).
T1 construct: Rat-Hes1 (residues 3-281)
T1 sequence (Q04666 3-281): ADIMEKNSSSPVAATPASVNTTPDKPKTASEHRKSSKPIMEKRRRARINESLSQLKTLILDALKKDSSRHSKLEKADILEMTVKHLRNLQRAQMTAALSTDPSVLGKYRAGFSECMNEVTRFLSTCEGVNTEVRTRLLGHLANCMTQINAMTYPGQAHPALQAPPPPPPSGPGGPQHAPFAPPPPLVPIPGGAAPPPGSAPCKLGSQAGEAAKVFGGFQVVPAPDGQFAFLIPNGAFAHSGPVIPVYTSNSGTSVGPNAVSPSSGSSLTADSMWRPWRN
Briefly: biochemical. Also on record: Fluorescence plate assay of Hes1 dimer formation, immobilized Hes1 with Cy3-labeled Hes1. To be noted: Hes1 dimer formation. The procedure:
Nunc Immobilizer™ Amino 96 well plate, white (Nalge Nunc Int.) was used for immobilizing of Hes1. The wells were incubated with 100 μL of Hes1 (10 μg mL^–1 in PBS) for 2 h at 4 °C. After the removal of protein solution, to block remaining activated units on the well, the wells were incubated for 2 h at 4 °C with 100 μL of 10 mM ethanolamine (in 100 mM Na2CO3 buffer, pH 9.6), then washed twice with 200 μL of PBST (PBS containing 0.05% Tween 20). The Hes1 bound microplate wells were incubated with 50 μL of Cy3-labeled-Hes1 in NET-N buffer (ca. 7 mg L^–1, dye/protein = 0.65) for 24 h at 4 °C. After removal of protein solution, each well was washed twice with 200 μL of PBST, then each compound solution (NET-N buffer, 50 μL) was added. After incubation for 1 h at RT in the dark, each well was washed twice with 200 μL of PBST, then dried under reduced pressure 1 h in the dark. The fluorescence intensity was measured in a microplate reader (Fluoroskan Ascent, Thermo). The Cy3 dye was excited at 530 nm and emitted at 590 nm. Usually, the assays were carried out in three individual wells, and the mean value and SD were calculated. Fig. 4 Hes1 dimer formation inhibitory activity. (a) Schematic representation of the assay for inhibitors of Hes1 dimer formation. Rat-Hes1 (residues 3-281) was exposed to Cy3-labeled Hes1. Hes1 dimer was detected through its fluorescence intensity.[40] The assay was performed after the equilibrium of exchange between immobilized Hes1 with Cy3-Hes1 and unlabeled Hes1 which was estimated to be included as unlabeled Hes1 dimers at the immobilizing stage. (b) Hes1 dimer formation inhibition by the isolated compounds 2–4. […] The complex was detected with horseradish peroxidase (HRP) conjugated anti-GST antibody. […] The ratio of dye/protein was calculated from the absorption for Cy3 (ε 150000 M-1 cm-1 at 552 nm). […] Fluorescence plate assay for inhibitors of Hes1 dimer formation Nunc ImmobilizerTM Amino 96 well plate, white (Nalge Nunc Int.) was used for immobilizing of Hes1. […] The fluorescence intensity was measured in a microplate reader (Fluoroskan Ascent, Thermo). […]

Data set [2] has as its target T1, Hes1. Briefly: Hes1 dimer fluorescence plate assay (Cy3-Hes1); binding also shown by GST-Hes1 beads-HPLC with truncated proteins.
Data set [3] concerns the target T1, Hes1. Briefly: Hes1 dimer fluorescence plate assay (Cy3-Hes1); binding also shown by GST-Hes1 beads-HPLC.
Data set [4] concerns the molecule itself. Briefly: fluorescence plate assay (Hes1 dimer plate assay); Hes1 (10 μg/mL in PBS) immobilised on a Nunc Immobilizer Amino 96 well plate; Cy3-labeled Hes1 (ca. 7 mg/L) in NET-N buffer for 24 h at 4 °C; washed with PBST; fluorescence read at 530/590 nm.

Consider `CCCC(=O)/C=C/C1=C(O)C(=O)c2cc(O)c(O)cc2C1=O` [compound 1, lindbladione], for which the IC50 (as a rule, the point on the concentration scale where inhibition reaches its midpoint) against Hes1 [1] worked out at 3.7 µM. On to `COc1ccc(-c2cc(=O)c3c(O[C@@H]4O[C@H](CO[C@@H]5OC[C@@H](O)[C@H](O)[C@H]5O)[C@@H](O)[C@H](O)[C@H]4O)cc(OC)cc3o2)cc1` [compound 2, agalloside], for which, at Hes1 [2], the IC50 amounted to 10.1 µM.

For `COc1cc(O[C@@H]2O[C@H](CO[C@@H]3OC[C@@H](O)[C@H](O)[C@H]3O)[C@@H](O)[C@H](O)[C@H]2O)c2c(=O)cc(-c3ccc(O)cc3)oc2c1` [compound 3, genkwanin 5-O-β-D-xylosyl-β-D-glucoside], the IC50 at Hes1 [1] was over 64 µM. Regarding `COc1cc(O[C@@H]2O[C@H](CO[C@@H]3OC[C@@H](O)[C@H](O)[C@H]3O)[C@@H](O)[C@H](O)[C@H]2O)c2c(=O)cc(-c3ccc(OC)c(OC)c3)oc2c1` [compound 4, lethedioside A], on Hes1 [3], the IC50 was found to be 9.5 µM. Turning to `COc1c(O)cc2oc3cc(O)c(CC=C(C)C)c(O)c3c(=O)c2c1CC=C(C)C` [compound 5, α-Mangostine], the half-inhibitory concentration (IC50) against Hes1 [1] was over 64 µM.

B1: Rat-Hes1 (residues 3-281) (natural protein, UniProt Q04666 3-281, looked up)
chain: ADIMEKNSSSPVAATPASVNTTPDKPKTASEHRKSSKPIMEKRRRARINESLSQLKTLILDALKKDSSRHSKLEKADILEMTVKHLRNLQRAQMTAALSTDPSVLGKYRAGFSECMNEVTRFLSTCEGVNTEVRTRLLGHLANCMTQINAMTYPGQAHPALQAPPPPPPSGPGGPQHAPFAPPPPLVPIPGGAAPPPGSAPCKLGSQAGEAAKVFGGFQVVPAPDGQFAFLIPNGAFAHSGPVIPVYTSNSGTSVGPNAVSPSSGSSLTADSMWRPWRN
modifications: Cy3 label on the copy added in solution (dye/protein = 0.65); the immobilised copy is unlabelled
notes: Hes1 (hairy and Enhancer of split 1), rat, residues 3-281; One copy was coupled to a Nunc Immobilizer Amino plate and the other was Cy3-labelled; also called Cy3-labeled Hes1; Cy3-Hes1
As for B1, the binding result in data set [4] is given as “binds”.
